Assay results published in paper PMC9519446, “Discovery of an Orally Active Benzoxaborole Prodrug Effective in the Treatment of Chagas Disease in Non-human Primates” (Nature microbiology, 2022).

Experiments:
[1] = system: T. cruzi intracellular amastigotes; test: In vitro anti-T. cruzi intracellular amastigote growth inhibition assay (tdTomato fluorescence over 72 hours, Vero cells); type: cell-based, Trypanosoma cruzi; conditions: Trypanosoma cruzi, Vero; in vitro; Fig. 1a, Extended Data Fig. 1a; read-out: T. cruzi IC50
Procedure: The in vitro anti-T. cruzi amastiogote activity assay was performed and optimized based on the protocol described previously. The change in tdTomato fluorescence intensity was determined as a measurement of growth over 72 hours of culture. For assaying drug effects on extracellular amastigotes, trypomastigotes were collected from infected Vero cell cultures and converted in acidic media as previously described. Amastigotes (50,000/well) were incubated with 2-fold serial dilutions of compounds for 48 hours. The ATP production was used as an indication of growth in this case, and was measured by ATPlite Luminescence ATP Detection Assay System (PerkinElmer). Both fluorescence and luminescence were read using a BioTek Synergy Hybrid Multi-Mode reader equipped with the software Gene5 v 2.0 (BioTek). The dose-response curve was generated by […] analysis with GraphPad Prism v9.4.0 (GraphPad Software).

[2] = system: T. cruzi Brazil strain; set-up: method as in PMID 23945371; conditions: cited from earlier work
[3] = in vivo
[4] = system: T. cruzi CL strain in Vero cells; test: RNA-seq: parasite mRNA relative to host cell (Vero) mRNA; type: cell-based, Trypanosoma cruzi
Procedure: The drug concentration used for treatment was set at 5 times the IC50. Samples were collected at several time points for RNA extraction as previously described. rRNA-depleted RNA library construction and RNA sequencing using Illumina Nextseq 75PE was carried out by Georgia Genomics and Bioinformatics Core (GGBC, University of Georgia, Georgia). […] The mapping rate was quantified by HTseq v0.6.1 [51].

[5] = system: T. cruzi; conditions: cited from earlier work

Row | SMILES | IC50 [1] | cure of infected mice ([2]; mice infected with the T. cruzi Brazil strain) | rodent tolerability [3] | RNA-seq reads mapped to African green monkey ([4]; 0hpt) | RNA-seq reads mapped to T.cruzi CL Brener ([4]; 0hpt) | RNA-seq reads unmapped ([4]; 0hpt) | RNA-seq reads mapped to African green monkey ([4]; 12hpt) | RNA-seq reads mapped to T.cruzi CL Brener ([4]; 12hpt) | RNA-seq reads unmapped ([4]; 12hpt) | RNA-seq reads mapped to African green monkey ([4]; 24hpt) | RNA-seq reads mapped to T.cruzi CL Brener ([4]; 24hpt) | RNA-seq reads unmapped ([4]; 24hpt) | cure with 20 days of treatment ([2]; mice) | failures in treatment trial ([5]; T. cruzi-infected NHPs, ref Tarleton, et al., in preparation) | cure rate ([5]; cyno macaques, ref unpublished result of the authors)
1 | O=C(Nc1ccc2c(c1)B(O)OC2)c1ccc(F)cc1C(F)(F)F [AN4169] | 350 nM | 100% | insufficient therapeutic margin | – | – | – | – | – | – | – | – | – | – | – | –
2 | O=C(Cn1ccnc1[N+](=O)[O-])NCc1ccccc1 [benznidazole, reference compound] | – | – | – | 52 | 17 | 31 | 61 | 14 | 25 | 62 | 12 | 27 | only partially effective in generating cure | > 60% | ~ 30%
